Assay results: patent US8440683B2, “Pharmaceutical preparation for treating demyelinating diseases of the nervous system; preparation promoting restoration of the myelin sheath of nerve fibers; and a method for treating demyelinating diseases of the nervous system” (priority 2007, dated 2013)

Tests used:
[1] = clinical scale; abscesses, hematomas, elevated arterial pressure, allergic reactions etc.; cited from earlier work
[2] = test system: Schwann cells; assay: stimulation of Schwann cell growth and myelin formation; details: inventors' experiments
[3] = test system: degenerating nerves; assay: myelination of degenerating nerves in rats; type: in vivo
Excerpt: By comparison, myelination of nerve fibers proceeded slowly in control animals that were not treated with stephaglabrin sulfate and was not completed even within 100 to 120 days.

[4] = treatment of myelopathy patients with lateral amyotrophic syndrome; type: in vivo; details: intramuscular 2.0 ml of 0.25% solution twice a day, two to three weeks
Protocol: Administration of stephaglabrin sulfate intramuscularly in 2.0 ml doses of a 0.25% solution twice a day for two to three weeks in treating myelopathy patients showing elements of a lateral amyotrophyic syndrome.

[5] = treatment of patients with cerebrospinal form of disseminated sclerosis; type: in vivo; details: disseminated sclerosis with tetraparesis, cerebello-ataxic syndrome, pelvic disorders
Excerpt: The preparation was effective in patients suffering from the cerebrospinal form of disseminated sclerosis combined with tetraparesis, cerebello-ataxic syndrome, and pelvic disorders.

[6] = treatment of syringomyelia patients; type: in vivo
Protocol: The preparation was administered to 37 patients suffering from syringomyelia.
Along with the administration of the preparation, all the patients were directed to take massage sessions, physiotherapy exercises, spine ionization by potassium iodide, and vitamins B1 and B12. […] Special attention must be drawn to the fact that the malfunctions are corrected in patients showing early signs of syringobulbia.

[7] = treatment of amyotrophic lateral sclerosis patients; type: in vivo
Excerpt: Another patient had their disordered breathing, which could not be corrected by other preparations, restored.

[8] = in water and aqueous alcohol; cited from earlier work
[9] = test system: true and false cholinesterase; details: cited from earlier work
[10] = test system: smooth muscles; details: cited from earlier work
[11] = in vivo; cited from earlier work
[12] = in vivo; cited from earlier work; remark: listed apart in the source
[13] = test system: connective tissue development; details: damage to a nerve; U.S.S.R. Patent No. 1,713,151; cited from earlier work

| Substance | side reactions on clinical use [1] | growth of Schwann cells and subsequent myelin formation [2] | start of myelination of degenerating nerves ([3]; 0.1 to 1.0 mg/kg, versus untreated animals) | speed of impulse passage in the nerve ([3]; electrophysiological studies) | clinical effects observed [4] | clinical effectiveness [5] | time to lowered levels of sensing disorders ([6]; from the start of treatment, 2 ml twice a day plus massage, physiotherapy, vitamins) | patients with a positive effect ([6]; of 37 syringomyelia patients) | onset of decline of sympathalgic pain intensity ([6]; some patients) | therapeutic effect ([7]; 14 patients with severe amyotrophic lateral sclerosis) | disordered breathing ([7]; another patient, not corrected by other preparations) | patients with strength build-up in the extremities and reduced bulbar disorders ([7]; of 14 patients) | swallowing ([7]; one patient with aphonia and dysphagia, after 10 days of 2 ml twice a day) | solubility [8] | activity of true and false cholinesterase [9] | effect on smooth muscles [10] | arterial pressure [11] | toxicity [12] | activity in relation to connective tissue development, preventing formation of scars [13] |
| --- | --- | --- | --- | --- | --- | --- | --- | --- | --- | --- | --- | --- | --- | --- | --- | --- | --- | --- | --- |
| glatiramer acetate [Copaxone-Teva] | Numerous side reactions |  |  |  |  |  |  |  |  |  |  |  |  |  |  |  |  |  |  |
| stephaglabrin sulfate |  | stimulate the growth of Schwann cells | stimulates an early start of myelination | complete recovery | disappearance of fibrillations, reduction in amyotrophy intensity and polykinetics of proprioceptive reflexes, and growth of muscle power in the arms | effective | within two to three weeks | 28 patients | 10th to 12th day | positive therapeutic effect | restored | 12 patients | significant improvement in swallowing | well soluble | suppresses the activity | tonic effect | lowers arterial pressure | low toxicity | specific inhibiting activity |
